The values that follow come from ChEMBL document CHEMBL3351714 (Bioorg Med Chem, 2014).

Sequence of 5-hydroxytryptamine receptor 2A (Homo sapiens) (P28223 whole entry): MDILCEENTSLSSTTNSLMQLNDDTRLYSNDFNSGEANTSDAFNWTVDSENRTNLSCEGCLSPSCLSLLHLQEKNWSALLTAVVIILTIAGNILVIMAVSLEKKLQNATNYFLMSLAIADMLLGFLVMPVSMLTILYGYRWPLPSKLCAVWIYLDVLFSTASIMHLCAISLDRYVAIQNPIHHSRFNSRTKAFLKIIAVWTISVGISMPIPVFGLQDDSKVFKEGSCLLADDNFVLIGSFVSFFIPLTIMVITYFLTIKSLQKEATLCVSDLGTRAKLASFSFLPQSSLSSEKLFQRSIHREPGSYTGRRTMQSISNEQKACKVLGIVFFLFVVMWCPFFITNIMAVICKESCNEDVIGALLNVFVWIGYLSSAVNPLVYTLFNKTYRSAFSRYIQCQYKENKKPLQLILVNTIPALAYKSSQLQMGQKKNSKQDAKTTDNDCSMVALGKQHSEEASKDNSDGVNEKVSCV

The target in the first assay is T1, D(1A) dopamine receptor (Homo sapiens, UniProt P21728). In words: Displacement of [3H]SCH23390 from D1 receptor (unknown origin) transfected in HEK293T cells at 10 uM after 50 mins by liquid scintillation counting analysis. In kind it is cell-based. Particulars: HEK-293T. On the technique in general: Loss of bound radioactivity is the signal in a displacement assay; it reports binding, not function.
T1 sequence (P21728 whole entry): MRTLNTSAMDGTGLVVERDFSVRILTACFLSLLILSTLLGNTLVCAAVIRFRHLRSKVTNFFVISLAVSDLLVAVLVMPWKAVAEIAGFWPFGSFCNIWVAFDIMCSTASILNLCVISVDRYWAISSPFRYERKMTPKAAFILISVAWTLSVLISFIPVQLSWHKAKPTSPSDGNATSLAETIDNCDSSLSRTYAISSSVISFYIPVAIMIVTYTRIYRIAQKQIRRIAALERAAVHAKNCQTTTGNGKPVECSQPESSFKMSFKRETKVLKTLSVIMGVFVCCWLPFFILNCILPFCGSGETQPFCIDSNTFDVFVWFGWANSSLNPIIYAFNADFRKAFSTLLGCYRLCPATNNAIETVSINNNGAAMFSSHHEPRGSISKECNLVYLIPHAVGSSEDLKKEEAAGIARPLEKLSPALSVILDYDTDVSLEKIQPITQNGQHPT
For orientation: inhibition means the drop in the measured response relative to a control, in per cent. Regarding `COc1cc2c(cc1O)[C@@H]1Cc3sc(CCCl)cc3CN1CC2`, the inhibition worked out at 96.7%.
With `CCc1cc2c(s1)C[C@H]1c3cc(O)c(OC)cc3CCN1C2`, the inhibition amounted to 98.2%.
As for `COc1cc2c(cc1O)[C@@H]1Cc3sc(CC4CC4)cc3CN1CC2`, the inhibition was 96.8%.
For the compound `CCCc1cc2c(s1)C[C@H]1c3cc(O)c(OC)cc3CCN1C2`, the inhibition came to 98.2%.
With `COc1cc2c(cc1O)[C@@H]1Cc3sc(CCCC(C)C)cc3CN1CC2`, the inhibition came out at 68.1%.
As for `COc1cc2c(cc1O)[C@@H]1Cc3sc(CC(C)C)cc3CN1CC2`, the inhibition came to 97.6%.
Consider `COc1cc2c(cc1O)[C@@H]1Cc3sc(CCC(C)C)cc3CN1CC2`, for which the inhibition was found to be 88.8%.
On to `COc1cc2c(cc1O)[C@@H]1Cc3sc(CCCCCl)cc3CN1CC2`, for which the inhibition was found to be 91.1%.

A further assay has as its target T1, D(1A) dopamine receptor. Description: Displacement of [3H]SCH23390 from D1 receptor (unknown origin) transfected in HEK293T cells after 50 mins by liquid scintillation counting analysis. In kind it is cell-based, HEK-293T.
Settings: not given
As usually defined, the Ki is a measure of affinity in units of concentration, obtained from inhibition or displacement. A higher Ki goes with lower affinity. In the case of `COc1cc2c(cc1O)[C@@H]1Cc3sc(CCCl)cc3CN1CC2`, the Ki is 0.0164 µM.
Take `CCc1cc2c(s1)C[C@H]1c3cc(O)c(OC)cc3CCN1C2`: the affinity, expressed as Ki, was 0.0263 µM.
The compound `COc1cc2c(cc1O)[C@@H]1Cc3sc(CC4CC4)cc3CN1CC2` returned an inhibition constant Ki of 0.0662 µM.
`CCCc1cc2c(s1)C[C@H]1c3cc(O)c(OC)cc3CCN1C2` returned a Ki of 0.0617 µM. This Ki and that of the compound before are within 1.5-fold of each other.
Compound `COc1cc2c(cc1O)[C@@H]1Cc3sc(CC(C)C)cc3CN1CC2` registered a Ki of 0.128 µM.
As to `COc1cc2c(cc1O)[C@@H]1Cc3sc(CCCCCl)cc3CN1CC2`, the affinity, expressed as Ki, was 0.719 µM.

The target of another assay is T2, D(2) dopamine receptor (Homo sapiens, UniProt P14416). Description: Displacement of [3H]Spiperone from D2 receptor (unknown origin) transfected in HEK293T cells at 10 uM after 50 mins by liquid scintillation counting analysis. Particulars: HEK-293T. In kind it is cell-based.
T2 sequence (P14416 whole entry): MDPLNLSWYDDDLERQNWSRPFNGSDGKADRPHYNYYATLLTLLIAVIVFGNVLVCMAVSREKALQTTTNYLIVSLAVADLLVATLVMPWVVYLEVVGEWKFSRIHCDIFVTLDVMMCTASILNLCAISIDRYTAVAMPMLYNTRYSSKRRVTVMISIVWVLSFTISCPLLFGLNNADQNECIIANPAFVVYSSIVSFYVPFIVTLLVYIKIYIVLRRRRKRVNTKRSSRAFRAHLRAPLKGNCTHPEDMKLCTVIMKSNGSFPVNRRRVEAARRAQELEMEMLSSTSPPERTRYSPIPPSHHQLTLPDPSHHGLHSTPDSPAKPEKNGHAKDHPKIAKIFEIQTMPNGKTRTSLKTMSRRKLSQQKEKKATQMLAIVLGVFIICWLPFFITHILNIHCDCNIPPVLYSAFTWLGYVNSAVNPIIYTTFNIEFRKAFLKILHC
As for `COc1cc2c(cc1O)[C@@H]1Cc3sc(CCCl)cc3CN1CC2`, the inhibition came out at 98.4%.
On to `CCc1cc2c(s1)C[C@H]1c3cc(O)c(OC)cc3CCN1C2`, for which the inhibition was 98.5%.
Take `COc1cc2c(cc1O)[C@@H]1Cc3sc(CC4CC4)cc3CN1CC2`: the inhibition was 99%.
In the case of `CCCc1cc2c(s1)C[C@H]1c3cc(O)c(OC)cc3CCN1C2`, the inhibition stood at 96.3%.
Take `COc1cc2c(cc1O)[C@@H]1Cc3sc(CCCC(C)C)cc3CN1CC2`: the inhibition is 89%.
Turning to `COc1cc2c(cc1O)[C@@H]1Cc3sc(CCC(C)C)cc3CN1CC2`, the inhibition was 90.5%.
In the case of `COc1cc2c(cc1O)[C@@H]1Cc3sc(CCCCCl)cc3CN1CC2`, the inhibition was 103%.

Another assay has as its target T2, D(2) dopamine receptor. Description: Displacement of [3H]Spiperone from D2 receptor (unknown origin) transfected in HEK293T cells after 50 mins by liquid scintillation counting analysis.
Settings: not given
The class given is cell-based, HEK-293T.
Compound `COc1cc2c(cc1O)[C@@H]1Cc3sc(CCCl)cc3CN1CC2` had a Ki of 0.0344 µM.
The same measure, in the same setting: for `CCc1cc2c(s1)C[C@H]1c3cc(O)c(OC)cc3CCN1C2` the value was 0.0408 µM; for `COc1cc2c(cc1O)[C@@H]1Cc3sc(CC4CC4)cc3CN1CC2`, 0.0115 µM; for `CCCc1cc2c(s1)C[C@H]1c3cc(O)c(OC)cc3CCN1C2`, 0.0386 µM.
For `COc1cc2c(cc1O)[C@@H]1Cc3sc(CC(C)C)cc3CN1CC2`, the affinity corresponds to a Ki of 0.00754 µM.
`COc1cc2c(cc1O)[C@@H]1Cc3sc(CCC(C)C)cc3CN1CC2` registered a Ki of 0.0795 µM.
`COc1cc2c(cc1O)[C@@H]1Cc3sc(CCCCCl)cc3CN1CC2` yielded a Ki of 0.012 µM.

Another assay deals with T3, 5-hydroxytryptamine receptor 1A (Homo sapiens) (UniProt P08908).
T3 sequence (whole entry): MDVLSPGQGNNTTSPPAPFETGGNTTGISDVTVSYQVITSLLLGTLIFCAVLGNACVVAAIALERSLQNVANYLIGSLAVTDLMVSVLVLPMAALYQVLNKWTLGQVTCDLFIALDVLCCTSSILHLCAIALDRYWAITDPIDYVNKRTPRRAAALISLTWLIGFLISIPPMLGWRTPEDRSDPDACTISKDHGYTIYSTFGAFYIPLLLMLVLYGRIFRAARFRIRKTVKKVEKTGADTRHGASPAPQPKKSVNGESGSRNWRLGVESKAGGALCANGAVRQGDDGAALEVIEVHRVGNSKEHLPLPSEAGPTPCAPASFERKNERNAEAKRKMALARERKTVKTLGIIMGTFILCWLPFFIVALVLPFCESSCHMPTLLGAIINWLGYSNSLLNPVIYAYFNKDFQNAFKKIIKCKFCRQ
In words: Displacement of [3H]8-OH-DPAT from 5HT1A receptor (unknown origin) transfected in HEK293T cells at 10 uM after 50 mins by liquid scintillation counting analysis. In kind it is cell-based. The settings on record: HEK-293T.
As for `COc1cc2c(cc1O)[C@@H]1Cc3sc(CCCl)cc3CN1CC2`, the inhibition was determined as 90.8%.
For the compound `CCc1cc2c(s1)C[C@H]1c3cc(O)c(OC)cc3CCN1C2`, the inhibition came out at 92.1%.
As to `COc1cc2c(cc1O)[C@@H]1Cc3sc(CC4CC4)cc3CN1CC2`, the inhibition is 96.1%.
Consider `CCCc1cc2c(s1)C[C@H]1c3cc(O)c(OC)cc3CCN1C2`, for which the inhibition was found to be 85.3%.
For `COc1cc2c(cc1O)[C@@H]1Cc3sc(CCCC(C)C)cc3CN1CC2`, the inhibition stood at 36.3%.
`COc1cc2c(cc1O)[C@@H]1Cc3sc(CC(C)C)cc3CN1CC2`: the inhibition came out at 83.7%.
Consider `COc1cc2c(cc1O)[C@@H]1Cc3sc(CCC(C)C)cc3CN1CC2`, for which the inhibition turned out to be 86.9%.
As for `COc1cc2c(cc1O)[C@@H]1Cc3sc(CCCCCl)cc3CN1CC2`, the inhibition was found to be 91.9%.

Another assay has as its target T4, 5-hydroxytryptamine receptor 1A (Homo sapiens, UniProt P08908).
T4 sequence (P08908 whole entry): T3 sequence (whole entry)
In words: Displacement of [3H]8-OH-DPAT from 5HT1A receptor (unknown origin) transfected in HEK293T cells after 50 mins by liquid scintillation counting analysis. In kind it is cell-based, HEK-293T.
Settings: not given
`COc1cc2c(cc1O)[C@@H]1Cc3sc(CC4CC4)cc3CN1CC2` yielded a Ki of 0.175 µM.
Compound `COc1cc2c(cc1O)[C@@H]1Cc3sc(CCCCCl)cc3CN1CC2` yielded a Ki of 0.655 µM.

Another assay concerns the target 5-hydroxytryptamine receptor 2A (Homo sapiens) (UniProt P28223). Description: Displacement of [3H]Ketanserin from 5HT2A receptor (unknown origin) transfected in HEK293T cells at 10 uM after 15 mins by liquid scintillation counting analysis. In kind it is cell-based. The settings on record: HEK-293T.
`COc1cc2c(cc1O)[C@@H]1Cc3sc(CCCl)cc3CN1CC2`: the inhibition stood at 34.8%.
With `CCc1cc2c(s1)C[C@H]1c3cc(O)c(OC)cc3CCN1C2`, the inhibition stood at 45.1%.
For `COc1cc2c(cc1O)[C@@H]1Cc3sc(CC4CC4)cc3CN1CC2`, the inhibition is 39.3%.
For `CCCc1cc2c(s1)C[C@H]1c3cc(O)c(OC)cc3CCN1C2`, the inhibition came to 29.6%.
For the compound `COc1cc2c(cc1O)[C@@H]1Cc3sc(CCCC(C)C)cc3CN1CC2`, the inhibition came out at 34.9%.
As to `COc1cc2c(cc1O)[C@@H]1Cc3sc(CC(C)C)cc3CN1CC2`, the inhibition came to 50.3%.
Take `COc1cc2c(cc1O)[C@@H]1Cc3sc(CCC(C)C)cc3CN1CC2`: the inhibition amounted to 50.5%.
Same read-out and setting: for `COc1cc2c(cc1O)[C@@H]1Cc3sc(CCCCCl)cc3CN1CC2` the value was 39.6%.

Another assay deals with D(3) dopamine receptor (Homo sapiens, UniProt P35462). Description: Displacement of [3H]Spiperone from D3 receptor (unknown origin) transfected in HEK293T cells after 50 mins by liquid scintillation counting analysis. In kind it is cell-based, HEK-293T.
Sequence of D(3) dopamine receptor (P35462 whole entry): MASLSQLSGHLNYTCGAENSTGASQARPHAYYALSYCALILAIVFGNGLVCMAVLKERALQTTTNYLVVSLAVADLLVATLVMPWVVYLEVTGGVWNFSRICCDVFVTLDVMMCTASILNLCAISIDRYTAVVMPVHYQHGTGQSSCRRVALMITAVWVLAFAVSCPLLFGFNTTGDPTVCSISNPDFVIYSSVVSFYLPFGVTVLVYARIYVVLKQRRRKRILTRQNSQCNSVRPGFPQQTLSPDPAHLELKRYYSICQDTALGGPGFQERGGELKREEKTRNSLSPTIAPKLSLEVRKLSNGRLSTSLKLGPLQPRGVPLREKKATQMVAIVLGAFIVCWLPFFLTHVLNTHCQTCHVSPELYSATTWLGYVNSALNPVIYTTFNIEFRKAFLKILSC
Settings: not given
As to `COc1cc2c(cc1O)[C@@H]1Cc3sc(CC(C)C)cc3CN1CC2`, the affinity corresponds to a Ki of 0.0199 µM. This counts as double-digit nanomolar.

A further assay concerns the target T1, D(1A) dopamine receptor. Description: Antagonist activity at D1 receptor (unknown origin) after 40 mins by [35S]GTP-gammaS binding assay in presence of SKF38393.
Settings: not given
The class given is functional. For orientation: GTPγS is a poorly hydrolysed GTP analogue; its binding reports G protein activation.
The term IC50 denotes the point on the concentration scale where inhibition reaches its midpoint. With `COc1cc2c(cc1O)[C@@H]1Cc3sc(CC(C)C)cc3CN1CC2`, the IC50 turned out to be 2.01 µM.

The target in a further assay is T2, D(2) dopamine receptor. In words: Antagonist activity at D2 receptor (unknown origin) after 40 mins by [35S]GTP-gammaS binding assay in presence of quinpirole. In kind it is functional.
Settings: not given
On to `COc1cc2c(cc1O)[C@@H]1Cc3sc(CC(C)C)cc3CN1CC2`, for which the IC50 came to 0.16 µM.

A further assay addresses T4, 5-hydroxytryptamine receptor 1A. In words: Agonist activity at 5HT1A receptor (unknown origin) after 20 mins by [35S]GTP-gammaS binding assay.
Settings: not given
The class given is functional.
As usually defined, the EC50 is the concentration needed to bring the measured effect to its halfway point. A high value points to a need for much substance. `COc1cc2c(cc1O)[C@@H]1Cc3sc(CC(C)C)cc3CN1CC2` yielded an EC50 of 0.59 µM.
